Article PMC8954640, “Pyranodipyran Derivatives with Tyrosyl DNA Phosphodiesterase 1 Inhibitory Activities and Fluorescent Properties from Aspergillus sp. EGF 15-0-3” (Marine Drugs, 2022)

How the values were obtained:
TDP1 = TDP1 (Homo sapiens, UniProt Q9NUW8); experiment: TDP1 inhibition fluorescence assay (quenched fluorescent single-stranded oligonucleotide substrate); assay type: biochemical; settings: substrate 5′-FAM-AGGATCTAAAAGACTT-BHQ-3′, repeated at least three times, read-out: TDP1 Inhibition (IC50 ± SD)
Sequence of TDP1 (Q9NUW8 whole entry): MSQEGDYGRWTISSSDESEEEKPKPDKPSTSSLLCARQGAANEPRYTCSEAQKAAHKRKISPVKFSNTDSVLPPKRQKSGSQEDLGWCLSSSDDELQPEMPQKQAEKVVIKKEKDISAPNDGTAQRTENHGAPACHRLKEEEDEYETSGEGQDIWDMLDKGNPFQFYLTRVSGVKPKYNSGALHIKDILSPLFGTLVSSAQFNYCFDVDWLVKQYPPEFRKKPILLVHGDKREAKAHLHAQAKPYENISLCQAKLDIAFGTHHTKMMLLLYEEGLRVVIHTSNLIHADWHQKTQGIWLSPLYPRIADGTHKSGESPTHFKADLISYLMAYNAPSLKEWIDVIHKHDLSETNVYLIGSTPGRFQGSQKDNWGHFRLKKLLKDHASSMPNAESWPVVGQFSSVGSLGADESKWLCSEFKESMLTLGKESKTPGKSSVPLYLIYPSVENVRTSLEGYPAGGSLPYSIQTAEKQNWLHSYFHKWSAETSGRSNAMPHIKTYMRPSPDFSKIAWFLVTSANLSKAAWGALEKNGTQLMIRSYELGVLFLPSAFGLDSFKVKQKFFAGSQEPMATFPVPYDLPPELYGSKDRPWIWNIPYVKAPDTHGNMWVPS
Source text: Considering the chiral properties of compounds will affect their activity, all of the obtained compounds, including racemates and enantiomers, were screened for TDP1 inhibition through a fluorescence assay using a quenched fluorescent single-stranded oligonucleotide (5′-FAM-AGGATCTAAAAGACTT-BHQ-3′) as substrate. […] To further investigate the mechanism of the TDP1 inhibitory activity of (+)-6 and (−)-6, a hypothetical binding mode was built using in silico docking from the X-ray crystal structure of humanized TDP1-inhibitor (PDB: 6DJD) to evaluate the mode of interactions of (+)-6 and (−)-6 with TDP1. The inhibitor was docked into the binding site. The tricyclic core of (+)-6 binds to the DNA binding groove in the proximity of the catalytically important residue His263, indicating a potential π–π stacking interaction stabilizing the inhibitor TDP1 complex. Three hypothetical hydrogen bonds were observed between the phenol hydroxy group and the amide group of residue Asn516 (2.9 Å), the 1″-hydroxy group and Ser518 residue (3.0 Å), and the pyran O atom and Ser400 residue (3.5 Å), which might contribute to TDP1 inhibition. Similarly, the polycyclic core scaffold of (−)-6 also lied along the DNA binding groove (Figure 7B), and the H-bonds (3.1 Å) between the phenol hydroxy group and the amide group of residue Asn516 was also observed. In addition, two H-bonds formed between the 2″-hydroxyl group and Ser400 residue (2.5 Å) and the pyran oxygen atom and phenol hydroxy group of Tyr204 residue (3.1 Å). […] The gold score values of (+)-6 and (−)-6 were 55.62 and 44.90, respectively. […] The mechanism of the TDP1 inhibitory activity of (±)-6 remains to be validated by biophysical assays in further research.
The TDP1 inhibition was tested through a fluorescence assay according to a previously reported method. Detailed procedures are included in the Supporting Information. […]
Briefly, TDP1 solution (20 μL/well, 0.02 μL of purified TDP1 (100 nM) in 10 mM Tris-HCl, pH 7.5, 50 mM KCl, 1 mM EDTA, 1 mM DTT) was dispensed into wells of a white 384-well plate (NEST). The tested compound solution in DMSO (5 μL) was pinned into assay plates and incubated at room tempera-ture for 30 min. During this time, the plates were read by a Flash multimode reader (Molecular Devices) at Ex485/Em510 nm to identify false-positive compound that had autofluorescence. The linear oligonucle-otide substrate 5′-FAM-AGGATCTAAAAGACTT-BHQ-3′ (25 μL, 35 nM) was dispensed into the wells to start the reaction. The whole plate was immediately read five times using a kinetic read on the Flash […]
multimode reader (Molecular Devices) (Ex485/Em510 nm). TDP1 percentage inhibition of the tested com-pound was calculated by comparing the rate of increase in fluorescence throughout time for the com-pound-treated wells to that of DMSO control wells. […]

[1] = Measurement of fluorescent properties in MeOH; assay type: physicochemical; settings: 300 μg/mL in MeOH; for Stokes Shift / λ em: λexc = 365 nm
Method: (§1) Each probe was prepared at 300 μg/mL in MeOH. The absorption spectra were recorded from 200 to 400 nm using a Chirascan circular dichroism spectrometer ([…]). The fluorescence spectra were recorded from 385 to 750 nm with an excitation wavelength of 365 nm using Edinburgh Instruments FLS1000. For UV-irradiated probes, each probe was exposed to 365 nm UV light from a handheld UV lamp for a certain time, and the fluorescence spectra were then recorded using the same method mentioned above.

[2] = Change in fluorescence emission upon photoirradiation with 365 nm UV light; assay type: physicochemical; settings: MeOH
Method: In addition, the fluorescent properties of 1–6 were also evaluated. […] Meanwhile, compounds 1–6 with the concentration of […] were exposed to […] UV light, and their fluorescence emission spectra were recorded (Figure 10) as a control experiment because the assay used to assess TDP1 inhibition was a fluorescence assay. […] In addition, during the TDP1 inhibition assay, the tested compound solutions were read by a Flash multimode reader at Ex485/Em510 nm to identify false-positive compounds that had autofluorescence.
as §1

With `CCCCC[C@H]1O[C@H](OC)c2c3c(cc(O)c2[C@@H]1OC)C=CC(C)(C)O3` [(+)-2, eurotiumide F] the IC50 (TDP1) was > 100 µM.
In the case of `CCCCC[C@@H]1O[C@@H](OC)c2c3c(cc(O)c2[C@@H]1OC)C[C@@H](O)C(C)(C)O3` [(−)-5, Aspergiletal C], the IC50 (TDP1) is reported as > 100 µM.
`CCCCCC1OC(OC)c2c3c(cc(O)c2C1OC)C=CC(C)(C)O3` (racemic) [(±)-2, (±)-Eurotiumide F] gave an IC50 (TDP1) of 57.8 ± 2.2 µM, a ε ([1]; listed as 2) of 70590.11 M^–1cm^–1 and a λ abs ([1]; listed as 2) of 223 nm. The “φ F” value ([1]; listed as 2) was 0.0225, the “Stokes Shift” value ([1]; listed as 2) was 241 nm and the λ em ([1]; listed as 2) was 464 nm. The “change of fluorescence with time upon 365 nm irradiation (photobleaching)” value (from here on “change of fluorescence”) ([2]; listed as 2) was “responded similarly to 1 but with a smaller magnitude improvement in fluorescence”.
In the case of `CCCCC[C@H]1O[C@H](OC)c2c3c(cc(O)c2[C@H]1OC)C[C@H](O)C(C)(C)O3` [(+)-5, Aspergiletal C], the IC50 (TDP1) is reported as > 100 µM.
`CCCCCC1OC(OC)c2c3c(cc(O)c2C1OC)C(O)C(O)C(C)(C)O3` (racemic) [(±)-6, (±)-Aspergiletal D] showed an IC50 (TDP1) of 6.5 ± 0.73 µM, a ε [1] of 127827.28 M^–1cm^–1 and a λ abs [1] of 225 nm. For the same molecule, the “φ F” value [1] was 0.0416, the “Stokes Shift” value [1] was 199 nm and the λ em [1] was 424 nm. The “change of fluorescence” value [2] was “significant loss of fluorescence with time”.
In the case of `CCCCC[C@H]1O[C@H](OC)c2c3c(cc(O)c2[C@H]1OC)C=C(OC)C(C)(C)O3` [(+)-3, Aspergiletal A], the IC50 (TDP1) is reported as > 100 µM.
For `CCCCC[C@@H]1O[C@@H](OC)c2c3c(cc(O)c2[C@@H]1OC)C=C(OC)C(C)(C)O3` [(−)-3, Aspergiletal A], the IC50 (TDP1) was > 100 µM.
With `CCCCC[C@H]1O[C@H](OC)c2c3c(cc(O)c2[C@H]1OC)C[C@H](OC)C(C)(C)O3` [(+)-4, Aspergiletal B] the IC50 (TDP1) was > 100 µM.
Molecule `CCCCC[C@@H]1O[C@@H](OC)c2c3c(cc(O)c2[C@@H]1OC)[C@@H](O)[C@@H](O)C(C)(C)O3` [(−)-6, Aspergiletal D] has an IC50 (TDP1) of 37.3 ± 3.63 µM.
With `CCCCCC1OC(OC)c2c3c(cc(O)c2C1OC)C=CC(C)(C)O3` (racemic) [(±)-1, (±)-Eurotiumide G] the IC50 (TDP1) was > 100 µM, the ε ([1]; listed as 1) was 125388.61 M^–1cm^–1 and the λ abs ([1]; listed as 1) was 221 nm. For the same molecule, the “φ F” value ([1]; listed as 1) was 0.0392, the “Stokes Shift” value ([1]; listed as 1) was 224 nm and the λ em ([1]; listed as 1) was 445 nm. The “change of fluorescence” value ([2]; listed as 1) was “increased substantially with time”.
For `CCCCCC1OC(OC)c2c3c(cc(O)c2C1OC)C=C(OC)C(C)(C)O3` (racemic) [(±)-3, (±)-Aspergiletal A], the IC50 (TDP1) was > 100 µM, the ε [1] was 61279.01 M^–1cm^–1 and the λ abs [1] was 206 nm. The “φ F” value [1] was 0.0048, the “Stokes Shift” value [1] was 266 nm and the λ em [1] was 472 nm. The “change of fluorescence” value [2] was “significant loss of fluorescence with time”.
With `CCCCC[C@H]1O[C@H](OC)c2c3c(cc(O)c2[C@H]1OC)C=CC(C)(C)O3` [(+)-1, eurotiumide G] the IC50 (TDP1) was > 100 µM.
For `CCCCCC1OC(OC)c2c3c(cc(O)c2C1OC)CC(O)C(C)(C)O3` (racemic) [(±)-5, (±)-Aspergiletal C], the IC50 (TDP1) was > 100 µM, the ε [1] was 106186.60 M^–1cm^–1 and the λ abs [1] was 203 nm. The “φ F” value [1] was 0.0482, the “Stokes Shift” value [1] was 229 nm and the λ em [1] was 432 nm. For the same molecule, the “change of fluorescence” value [2] was “significant loss of fluorescence with time”.
In the case of `CCCCCC1OC(OC)c2c3c(cc(O)c2C1OC)CC(OC)C(C)(C)O3` (racemic) [(±)-4, (±)-Aspergiletal B], the IC50 (TDP1) is reported as > 100 µM, the ε [1] is reported as 208307.41 M^–1cm^–1 and the λ abs [1] is reported as 225 nm. The “φ F” value [1] was 0.0649, the “Stokes Shift” value [1] was 203 nm and the λ em [1] was 428 nm. For the same molecule, the “change of fluorescence” value [2] was “inert to photobleaching”.
With `CCCCC[C@@H]1O[C@@H](OC)c2c3c(cc(O)c2[C@@H]1OC)C[C@@H](OC)C(C)(C)O3` [(−)-4, Aspergiletal B] the IC50 (TDP1) was > 100 µM.
In the case of `CCCCC[C@@H]1O[C@@H](OC)c2c3c(cc(O)c2[C@H]1OC)C=CC(C)(C)O3` [(−)-2, eurotiumide F], the IC50 (TDP1) is reported as > 100 µM.
For `CCCCCC1OC(OC)c2c3c(cc(O)c2C1OC)C=CC(C)(C)O3` (single isomer, unassigned; (-)) [(−)-1, eurotiumide G], the IC50 (TDP1) was > 100 µM.
For `CCCCC[C@H]1O[C@H](OC)c2c3c(cc(O)c2[C@H]1OC)[C@H](O)[C@H](O)C(C)(C)O3` [(+)-6, Aspergiletal D], the IC50 (TDP1) was 27.8 ± 1.73 µM.
